Literature values in patent publication US20020042375A1, “Method of treating cancer” (priority 2000, published 2002).

What was measured:
[1] = test system: PC-3 prostate cancer cells; conditions: PC-3 cells
[2] = test system: LNCaP prostate cancer cells
prostate cancer cell = conditions: in vitro
LNCaP cells = conditions: exogenous administration

SMILES | prostate cancer cell apoptosis (prostate cancer cell) | other results
CS(=O)(=O)Nc1ccc([N+](=O)[O-])cc1OC1CCCCC1 [NS398] | induce prostate cancer cell apoptosis | apoptosis [1]: induce apoptosis; apoptosis [2]: induce apoptosis
CC(=O)Oc1ccccc1C(=O)O [aspirin] | induce prostate cancer cell apoptosis | 
CCCCC(C)(C)[C@H](O)/C=C/[C@H]1[C@H](O)CC(=O)[C@@H]1C/C=C\CCCC(=O)O [dimethylprostaglandin E2] |  | proliferation in vitro (LNCaP cells): increased proliferation; proliferation in vitro (PC-3 cells; exogenous administration, PC-3 cells): increased proliferation
CC(C(=O)O)c1ccc(-c2ccccc2)c(F)c1 (centres unmarked) [flurbiprofen] | induce prostate cancer cell apoptosis | PC-3 growth (PC-3 cells; in the dimethylprostaglandin E2 model): inhibited PC-3 growth
COc1ccc2c(c1)c(CC(=O)O)c(C)n2C(=O)c1ccc(Cl)cc1 [indomethacin] | induce prostate cancer cell apoptosis | 
CC(C(=O)O)c1cccc(C(=O)c2ccccc2)c1 (centres unmarked) [ketoprofen] | induce prostate cancer cell apoptosis | 
CN1C(C(=O)Nc2ccccn2)=C(O)c2ccccc2S1(=O)=O [piroxicam] | induce prostate cancer cell apoptosis | 
